Reference: patent US6455556B2, “Crystal modifications of 1-(2,6-difluorobenzyl)-1H-1,2,3-triazole-4-carboxamide” (Novartis AG, priority 1997, dated 2002)

Assay: dissolution rate in water and gastric fluid
Type: physicochemical
Settings: compared with modification A or A′

- dissolution rate in gastric fluid (gastric fluid): substantially faster
- dissolution rate in water (water): substantially faster
Structure (SMILES): NC(=O)c1cn(Cc2c(F)cccc2F)nn1 [modification B, 1-(2,6-difluorobenzyl)-1H-1,2,3-triazole-4-carboxamide]
